Source: patent US4169096A, “Antibiotic compounds” (priority 1977, dated 1979)
Counter-ions that a name gives are not always drawn.

What was measured:
in vivo = details: po, LD50, po
B. fragilis A20926 = assay: Localized infection with B. fragilis in mice; assay type: in vivo; details: for mean score: control 4.2; for sum of score: control 21; for infectivity level: control 100%

Work on `COC(=O)C1C(C)OC2(C)CC(=O)C3OC12OC(C(C)/C=C(C)/C=C/C(=O)C1=C(O)CNC1=O)C3C` (stereo not drawn) [Bu-2313B (Na salt)] yielded an LD50 (Acute toxicity; ip) of 55 mg/kg, an LD50 (Acute toxicity; sc) of 200 mg/kg and an LD50 (in vivo) of 280 mg/kg. The mean score (B. fragilis A20926; oral, 6.3 × 5 mg/kg) was 3.4, the sum of score (B. fragilis A20926; oral, 6.3 × 5 mg/kg) was 17 and the infectivity level (B. fragilis A20926; oral, 6.3 × 5 mg/kg) was 81.0%. The mean score (B. fragilis A20926; oral, 25 × 5 mg/kg) was 3.0, the sum of score (B. fragilis A20926; oral, 25 × 5 mg/kg) was 15 and the infectivity level (B. fragilis A20926; oral, 25 × 5 mg/kg) was 71.4%. For the same molecule, the mean score (B. fragilis A20926; oral, 100 × 5 mg/kg) was 2.4, the sum of score (B. fragilis A20926; oral, 100 × 5 mg/kg) was 12 and the infectivity level (B. fragilis A20926; oral, 100 × 5 mg/kg) was 57.1%. For the same molecule, the mean score (B. fragilis A20926; oral, […] 5 mg/kg) was 4.0, the sum of score (B. fragilis A20926; oral, […] 5 mg/kg) was 20 and the infectivity level (B. fragilis A20926; oral, […] 5 mg/kg) was 95.2%. It also gave a mean score (B. fragilis A20926; subcutaneous, 0.8 × 5 mg/kg) of 4.0, a sum of score (B. fragilis A20926; subcutaneous, 0.8 × 5 mg/kg) of 20 and an infectivity level (B. fragilis A20926; subcutaneous, 0.8 × 5 mg/kg) of 95.2%. For the same molecule, the mean score (B. fragilis A20926; subcutaneous, 3.1 × 5 mg/kg) was 3.4, the sum of score (B. fragilis A20926; subcutaneous, 3.1 × 5 mg/kg) was 17 and the infectivity level (B. fragilis A20926; subcutaneous, 3.1 × 5 mg/kg) was 81.0%. The mean score (B. fragilis A20926; subcutaneous, 50 × 5 mg/kg) was 2.2, the sum of score (B. fragilis A20926; subcutaneous, 50 × 5 mg/kg) was 11 and the infectivity level (B. fragilis A20926; subcutaneous, 50 × 5 mg/kg) was 52.4%. The mean score (B. fragilis A20926; subcutaneous, […] 5 mg/kg) was 2.8, the sum of score (B. fragilis A20926; subcutaneous, […] 5 mg/kg) was 14 and the infectivity level (B. fragilis A20926; subcutaneous, […] 5 mg/kg) was 66.7%.
